According to patent publication US4360663A, “Steroid hormone-antitumor derivatives” (Kureha Kagaku Kogyo Kabushiki Kaisha, priority 1978, dated 1982):

Assays:
[1] = test system: estrogen sensitive cells (uterus of rabbit); experiment: Binding function to estrogen sensitive cells (3H-estradiol replacement, uterus of rabbit); conditions: 100 nM sample; smaller value = higher binding; 54-56% at 0 nM
Experimental: Binding function of the active ingredients to estrogen sensitive cells.
The binding function of the active ingredient to tumor cells was tested by the method described in Biochemical Experiment text Hormone (I) (Nippon Seikagaku) (Tokyo Kagakudojin page 217-252, April 25, 1977).
Estradiol labelled by tritium (^3 H) was incubated with uterus of rabbit to bind it and then, the sample was added to the system to measure the amount of free ^3 H-estradiol which was replaced by the added estradiol. The results are shown as the binding ^3 H-estradiol(%) in the cases adding […] of the sample.

[2] = test system: human breast cancer cells having steroid hormone receptor; experiment: Antitumor test (in vivo), human breast cancer cells implanted in BALB/C-nu/nu mice; conditions: tumors excised day 25
Experimental: Pieces of human breast cancer cells having steroid hormone receptor was subcutaneously implanted under the arm of mice (BALB/C-nu/nu) (5 week age) to form solid tumors. After the solid tumors were established, each dispersion or solution of the active ingredient in olive oil was administered by oral dose or intraperitoneal injection each other day for 10 times or every days for 20 times. Twenty five days from the initial administration, the tumors were excised. Efficiency of inhibition of tumor proliferation was measured from (A) each average weight of excised tumors for 10 mice (the active ingredient was administrated) and (B) each average weight of excised tumors for 10 control mice. [formula]
(§1) The tests (1), (2), (3) for various active ingredients were carried out.

[3] = test system: estrogen sensitive cells (uterus of rabbit); experiment: Binding function to estrogen sensitive cells (3H-estradiol replacement, uterus of rabbit); conditions: 10 nM sample; smaller value = higher binding; 54-56% at 0 nM
[4] = Acute toxicity (LD50), ICR-JCL female mice, Litchfield-Wilcoxon graph method; conditions: mouse, in vivo, one dose, in olive oil, after 7 days
Experimental: In the measurement of LD50, eight ICR-JCL female mice (5 week age) were used as one group to breed in a transparent polycage, and each drug was dissolved in olive oil and administrated by routes of intraperitoneal injection (i.p.), oral administration (p.o.) and subcutaneous injection (s.c.), to the mice at one dose and then, their value of LD50 by Litchfield-Wilcoxon graph method is obtained after 7 days.
as §1

Compound	Binding 3H-estradiol [1]	Inhibitory effect of tumor, efficiency ([2]; i.p., 1 mg/kg)	Inhibitory effect of tumor, efficiency ([2]; i.p., 3 mg/kg)	Inhibitory effect of tumor, efficiency ([2]; p.o., 10 mg/kg)	Inhibitory effect of tumor, efficiency ([2]; p.o., 40 mg/kg)	Binding 3H-estradiol [3]	LD50 at 168 h ([4]; ip)	LD50 at 168 h ([4]; po)	Inhibitory effect of tumor, efficiency ([2]; i.p., 5 mg/kg)	Inhibitory effect of tumor, efficiency ([2]; i.p., 10 mg/kg)	Inhibitory effect of tumor, efficiency ([2]; i.p., 20 mg/kg)	Inhibitory effect of tumor, efficiency ([2]; p.o., 50 mg/kg)
CO[C@H]1O[C@H](C(=O)OCC(=O)O[C@H]2CC[C@H]3[C@@H]4CCc5cc(O)ccc5[C@H]4CC[C@]23C)[C@@H](O)[C@H](O)[C@H]1NC(=O)N(CCCl)N=O [compound 2]	30%	90%	92%	79%	82%	45%	> 180 mg/kg	> 1000 mg/kg				
3-hydroxy-1,3,5(10)-estratriene-17β-[methyl-2-{N'-(2-chloroethyl)-N'-nitrosoureido}-2-deoxy-α-D-glucuronoyloxy]acetate [Test No. 2 (Table 17)]	17%					37%						
C[C@]12CC[C@@H]3c4ccc(O)cc4CC[C@H]3[C@@H]1CC[C@@H]2O [compound 1]	16%					36%						
COc1cccc2c1C(=O)c1c(O)c3c(c(O)c1C2=O)C[C@@](O)(C(C)=O)C[C@@H]3O[C@H]1C[C@H](N)[C@H](O)[C@H](C)O1 [compound 4]	56%					56%						
CN(N=O)C(=O)N[C@H]1C(O)O[C@H](C(=O)OCC(=O)O[C@H]2CC[C@H]3[C@@H]4CCc5cc(O)ccc5[C@H]4CC[C@]23C)[C@@H](O)[C@@H]1O (stereo partly drawn) [Test No. 6 (Table 17), 3-hydroxy-1,3,5(10)-estratriene-17β-[2-(N'-methyl-N'-nitrosoureido)-2-deoxy-D-glucuronoyloxy]acetate]	16%			77%	84%	28%	> 660 mg/kg	> 1000 mg/kg	92%	97%		
C[C@]12CC[C@@H]3c4ccc(O)cc4CC[C@H]3[C@@H]1CC[C@@H]2OC(=O)Cn1cc(F)c(=O)[nH]c1=O [Test No. 7 (Table 17), 3-hydroxy-1,3,5(10)-estratriene-17β-[5-fluoro-2,4-dioxo-pyrimidin-1-yl]acetate]	25%					36%	> 605 mg/kg	> 2000 mg/kg		90%	100%	
O=c1[nH]cc(F)c(=O)[nH]1 [compound 8]	53%					55%						
CN(Cc1cnc2nc(N)nc(N)c2n1)c1ccc(C(=O)N[C@@H](CCC(=O)OCC(=O)O[C@H]2CC[C@H]3[C@@H]4CCc5cc(O)ccc5[C@H]4CC[C@]23C)C(=O)OCC(=O)O[C@H]2CC[C@H]3[C@@H]4CCc5cc(O)ccc5[C@H]4CC[C@]23C)cc1 [Test No. 9 (Table 17), bis 3-hydroxy-1,3,5(10)-estratriene-17β-oxycarbonylmethyl-4-amino-N^10-methylpteroylglutamate]	19%			80%		35%	> 235 mg/kg	> 3000 mg/kg	98%			93%
